Among the test systems are MOLT-4 leukemia; SF-268 CNS; HOP-92 NSCLC; SN12C renal; SK-MEL-2 melanoma; EKVX NSCLC; HT29 colon; BT-549 breast; M19-MEL melanoma; LXFL 529 NSCLC.
Assay in all cases: NCI-60 cell line screen, 48 h

Values joined by “and” are separate entries in the source; they are usually repeats but may differ in a detail not shown here. Identical values can stand only once.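 Cells were grown in 96-well plates and exposed to each compound for 48 hours at five concentrations; endpoints were interpolated linearly between bracketing concentrations, or set to the highest concentration if not reached. GI50: concentration for 50% inhibition of growth. The concentration for full growth arrest is given as TGI.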

Take `CC(=O)c1cccc(NC(=O)C(=O)NNc2n[nH]c(=S)n2N)c1`: the TGI in the experiment on MOLT-4 leukemia came to 18.3 µM; in the experiment on SF-268 CNS it was 27.7 µM; in the experiment with HOP-92 NSCLC it was 28.7 µM; with SN12C renal, 20.3 µM; in the experiment on SK-MEL-2 melanoma, 13.1 µM; in the experiment on EKVX NSCLC, 29 µM. For the same compound, the TGI in the experiment on HT29 colon is 31.8 µM; with BT-549 breast it was 6.65 µM; in the experiment on M19-MEL melanoma, 2.36 µM; in the experiment on LXFL 529 NSCLC it was 22.5 µM.

As to `C=C(c1nc2ccc(Cl)cc2[nH]c1=O)C(O)c1ccc(C(O)C(=O)c2nc3ccc(Cl)cc3[nH]c2=O)cc1` (stereo not drawn), the TGI with MOLT-4 leukemia, with SF-268 CNS, with HOP-92 NSCLC, in the experiment on SN12C renal, in the experiment with SK-MEL-2 melanoma and in the experiment with EKVX NSCLC was > 100 µM each time. Moreover, the TGI in the experiment with HT29 colon, in the experiment on BT-549 breast, with M19-MEL melanoma and with LXFL 529 NSCLC was > 100 µM in each case.

Consider `O=C1c2cccc(NCCCNCCO)c2C(=O)c2cccc(NCCCNCCO)c21`, for which the TGI is 13.1 µM and 8.29 µM in the experiment with MOLT-4 leukemia; 2.82 µM and 4.69 µM in the experiment with SF-268 CNS; 4.08 µM with HOP-92 NSCLC; 6 µM and 5.31 µM in the experiment on SN12C renal; 3.47 µM and 3.42 µM in the experiment with SK-MEL-2 melanoma; 6.24 µM and 9.38 µM in the experiment with EKVX NSCLC. Further, the TGI in the experiment with HT29 colon is 4.43 µM and 5.38 µM; in the experiment with BT-549 breast, 4.21 µM; in the experiment with M19-MEL melanoma, 2.24 µM and 3.72 µM; with LXFL 529 NSCLC, 2.95 µM and 10.1 µM. For the same compound, the GI50 in the experiment on SF-268 CNS is 580 nM and 1500 nM; with M19-MEL melanoma it was 712 nM and 1800 nM; with LXFL 529 NSCLC, 844 nM and 2220 nM.

Consider `CCCN=C(N)NC#N`, for which the TGI in the experiment with MOLT-4 leukemia, with SF-268 CNS, in the experiment on HOP-92 NSCLC, with SN12C renal, in the experiment on SK-MEL-2 melanoma and with EKVX NSCLC was > 100 µM throughout. In addition, the TGI in the experiment on HT29 colon, with M19-MEL melanoma and in the experiment on LXFL 529 NSCLC was > 100 µM each time.

As to `C=COCCCOc1ccccc1`, the TGI in the experiment on MOLT-4 leukemia, with SF-268 CNS, in the experiment on HOP-92 NSCLC, in the experiment with SN12C renal, in the experiment with SK-MEL-2 melanoma and in the experiment with EKVX NSCLC was > 100 µM in each case. Moreover, the TGI in the experiment on HT29 colon, in the experiment with BT-549 breast, in the experiment on M19-MEL melanoma and in the experiment on LXFL 529 NSCLC was > 100 µM in each case. For the same compound, the GI50 with HOP-92 NSCLC and in the experiment on BT-549 breast was > 100 µM each time.

`CC(C)N(C(=O)C12C3C4C5(C#N)C3C1(C#N)C5C42I)C(C)C` (stereo not drawn): the TGI in the experiment on MOLT-4 leukemia, in the experiment on SF-268 CNS, with HOP-92 NSCLC, with SN12C renal, in the experiment on SK-MEL-2 melanoma and with EKVX NSCLC was > 100 µM in each case. In addition, the TGI with HT29 colon, in the experiment on M19-MEL melanoma and in the experiment with LXFL 529 NSCLC was > 100 µM in each case.

Consider `NNC(=S)N/N=C(\CC1OC(=O)c2ccccc21)c1ccccc1O` (stereo not drawn), for which the TGI with MOLT-4 leukemia was 75.6 µM; in the experiment on SF-268 CNS, > 100 µM; in the experiment with HOP-92 NSCLC, > 100 µM; in the experiment with SN12C renal it was > 100 µM; in the experiment on SK-MEL-2 melanoma, > 100 µM; in the experiment with EKVX NSCLC, > 100 µM. Moreover, the TGI with HT29 colon, in the experiment on M19-MEL melanoma and in the experiment on LXFL 529 NSCLC was > 100 µM in each case.

`COc1ccc(C(=O)C(c2ccc(OC)cc2)C2(O)C(=O)Nc3ccc([N+](=O)[O-])cc32)cc1` (stereo not drawn): the TGI was > 100 µM in the experiment on MOLT-4 leukemia; > 100 µM with SF-268 CNS; > 100 µM in the experiment on HOP-92 NSCLC; 24.4 µM in the experiment on SN12C renal; > 100 µM in the experiment on SK-MEL-2 melanoma; > 100 µM in the experiment on EKVX NSCLC. For the same compound, the TGI in the experiment with HT29 colon, with M19-MEL melanoma and with LXFL 529 NSCLC was > 100 µM each time.

As to `Cc1ccc(S(=O)(=O)N(CC(=O)O)c2ccccc2)cc1`, the TGI in the experiment on MOLT-4 leukemia, in the experiment with SF-268 CNS, in the experiment on HOP-92 NSCLC, in the experiment with SN12C renal, with SK-MEL-2 melanoma and in the experiment with EKVX NSCLC was > 100 µM in each case. Moreover, the TGI in the experiment on HT29 colon, in the experiment on M19-MEL melanoma and in the experiment with LXFL 529 NSCLC was > 100 µM in each case.

Consider `CN(C)/C=N/c1nc2c(ncn2C2OC(CO)C(O)C2O)c(=O)[nH]1` (stereo not drawn), for which the TGI with MOLT-4 leukemia, with SF-268 CNS, in the experiment on HOP-92 NSCLC, in the experiment on SN12C renal, in the experiment on SK-MEL-2 melanoma and with EKVX NSCLC was > 100 µM each time. In addition, the TGI with HT29 colon, in the experiment with M19-MEL melanoma and in the experiment with LXFL 529 NSCLC was > 100 µM each time.

`COc1cccc(/C=C/c2cc(OC)c(OC)c(OC)c2)c1`: the TGI with MOLT-4 leukemia, in the experiment on SF-268 CNS, with HOP-92 NSCLC, in the experiment with SN12C renal, with SK-MEL-2 melanoma and with EKVX NSCLC was > 100 µM throughout. The TGI in the experiment on HT29 colon, in the experiment with M19-MEL melanoma and in the experiment on LXFL 529 NSCLC was > 100 µM in each case.

With `CC(CCC=O)CCOCc1ccccc1` (stereo not drawn), the TGI with MOLT-4 leukemia was > 61.6 µM; in the experiment with SF-268 CNS, > 100 µM; in the experiment with HOP-92 NSCLC it was > 100 µM; in the experiment on SN12C renal, > 100 µM; in the experiment with SK-MEL-2 melanoma, > 100 µM; in the experiment on EKVX NSCLC, > 100 µM. The TGI with HT29 colon, in the experiment on BT-549 breast, in the experiment on M19-MEL melanoma and in the experiment with LXFL 529 NSCLC was > 100 µM throughout.

(Values after PubChem BioAssay (NCI).)
